Ki data for 18 molecules are collected here from US20060100431A1, “Biologically active compounds” (Amura Therapeutics Limited, priority 2002, published 2006).

The structures appear in SMILES notation. pKi: −log10 of the molar value. Like-named read-outs stand apart in the source and are kept apart here.

Test [1] addresses T1, CPB2.8ΔCTE (Leishmania mexicana, UniProt P36400).
T1 construct: Wild-type recombinant CPB without the C-terminal extention (i.e. CPB2.8ΔCTE); Dr. Jeremy Mottram (Wellcome Centre for Molecular Parasitology, University of Glasgow)
In words: Leishmania mexicana cysteine protease B (CPB) peptidase activity assay (Ki). It counts as biochemical. The settings on record: Ki, inhibitors of Leismania mexicana CPB protease. Here is the method:
Unless otherwise stated, all general chemicals and biochemicals were purchased from either the Sigma Chemical Company, Poole, Dorset, U.K or from Fisher Scientific UK, Loughborough, Leicestershire, U.K. Absorbance assays were carried out in flat-bottomed 96-well plates (Spectra; Greiner Bio-One Ltd., Stonehouse, Gloucestershire, U.K.) using a SpectraMax PLUS384 plate reader (Molecular Devices, Crawley, U.K.). Fluorescence high throughput assays were carried out in either 384-well microtitre plates (Corning Costar 3705 plates, Fisher Scientific) or 96-well ‘U’ bottomed Microfluor W1 microtitre plates (Thermo Labsystems, Ashford, Middlesex, U.K.). Fluorescence assays were monitored using a SpectraMax Gemini fluorescence plate reader (Molecular Devices). For substrates employing either a 7-amino-4-methylcoumarin (AMC) or a 7-amino-4-trifluoromethylcoumarin (AFC) fluorophore, assays were monitored at an excitation wavelength of 365 nm and an emission wavelength of 450 nm and the fluorescence plate reader calibrated with AMC. For substrates employing a 3-amino-benzoyl (Abz) fluorophore, assays were monitored at an excitation wavelength of 310 nm and an emission wavelength of 445 nm; the fluorescence plate reader calibrated with 3-amino-benzamide (Fluka). Unless otherwise indicated, all the peptidase substrates were purchased from Bachem UK, St Helens, Merseyside, UK. Substrates utilizing fluorescence resonance energy transfer methodology (i.e. FRET-based substrates) were synthesized at Incenta Limited using published methods (Atherton & Sheppard, Solid Phase Peptide Synthesis, IRL Press, Oxford, U.K, 1989) and employed Abz (2-aminobenzoyl) as the fluorescence donor and 3-nitro-tyrosine [Tyr(NO2)] as the fluorescence quencher (Meldal, M. and Breddam, K., Anal. Biochem, 195, 141-147, 1991). Hydroxyethylpiperazine ethanesulfonate (HEPES), tris-hydroxylmethyl aminomethane (tris) base, bis-tris-propane and all the biological detergents (e.g. CHAPS, zwittergents, etc.) were purchased from CN Biosciences UK, Beeston, Nottinghamshire, U.K. Glycerol was purchased from Amersham Pharmacia Biotech, Little Chalfont, Buckinghamshire, U.K. Stock solutions of substrate or inhibitor were made up to 10 mM in 100% dimethylsulfoxide (DMSO) (Rathburns, Glasgow, U.K.) and diluted as appropriately required. In all cases the DMSO concentration in the assays was maintained at less than 1% (vol./vol.).
Assay protocols were based on literature precedent (Table 4; Barrett, A. J., Rawlings, N. D. and Woessner, J. F., 1998, Handbook of Proteolytic Enzymes, Academic Press, London and references therein) and modified as required to suit local assay protocols. Enzyme was added as required to initiate the reaction and the activity, as judged by the change in fluorescence upon conversion of substrate to product, was monitored over time. All assays were carried out at 25±1° C.
Wild-type recombinant CPB without the C-terminal extention (i.e. CPB2.8ΔCTE; Sanderson, S. J., et. al., Biochem. J., 347, 383-388, 2000) was obtained from Dr. Jeremy Mottram (Wellcome Centre for Molecular Parasitology, The Anderson College, University of Glasgow, Glasgow, U.K.). Activity assays were carried out in 100 mM sodium acetate; pH 5.5 containing 1 mM EDTA; 200 mM NaCl and 10 mM DTT (Alves, L. C., et. al., Mol. Biochem. Parasitol, 116, 1-9, 2001) using 0.25 nM enzyme. […] The rate of conversion of substrate to product was derived from the slope of the increase in fluorescence monitored continuously over time.
The apparent inhibition constant (Ki) for each compound was determined on the basis that inhibition was reversible and occurred by a pure-competitive mechanism. The Ki values were calculated, from the dependence of enzyme activity as a function of inhibitor concentration, by direct regression analysis (Prism v 3.02) using Equation 2 (Cornish-Bowden, A., 1995.). [formula]

Test [2] concerns the target Wild-type cruzipain (Trypanosoma cruzi, UniProt P25779). The test is described as follows: Trypanosoma cruzi cruzipain peptidase activity assay (Ki). It counts as biochemical. An outline of the steps: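 Native cruzipain from T. cruzi Dm28 epimastigotes, 2.5 nM, in 100 mM sodium phosphate pH 6.75 with 1 mM EDTA and 10 mM L-cysteine, 25 °C, DMSO <1%. Rates taken from continuous fluorogenic substrate read; Ki by regression assuming reversible pure-competitive inhibition.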

Where [3] appears, read: read-out: Ki, inhibitors of cruzain and cruzipains.

Chain of Wild-type cruzipain (P25779 whole entry): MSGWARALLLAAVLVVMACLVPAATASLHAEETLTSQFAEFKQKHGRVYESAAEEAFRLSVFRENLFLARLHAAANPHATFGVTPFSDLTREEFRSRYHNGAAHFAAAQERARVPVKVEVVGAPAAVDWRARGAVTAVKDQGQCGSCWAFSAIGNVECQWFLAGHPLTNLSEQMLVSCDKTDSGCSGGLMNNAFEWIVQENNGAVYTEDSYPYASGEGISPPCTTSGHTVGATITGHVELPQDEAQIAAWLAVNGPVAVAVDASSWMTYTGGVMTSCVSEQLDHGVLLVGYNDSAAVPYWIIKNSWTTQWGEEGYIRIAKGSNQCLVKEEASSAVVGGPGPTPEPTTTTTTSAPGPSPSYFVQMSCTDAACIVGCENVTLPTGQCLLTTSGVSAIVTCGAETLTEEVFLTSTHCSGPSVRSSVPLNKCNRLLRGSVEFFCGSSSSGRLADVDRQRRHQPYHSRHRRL
T1 sequence (P36400 126-343, stated change not applied): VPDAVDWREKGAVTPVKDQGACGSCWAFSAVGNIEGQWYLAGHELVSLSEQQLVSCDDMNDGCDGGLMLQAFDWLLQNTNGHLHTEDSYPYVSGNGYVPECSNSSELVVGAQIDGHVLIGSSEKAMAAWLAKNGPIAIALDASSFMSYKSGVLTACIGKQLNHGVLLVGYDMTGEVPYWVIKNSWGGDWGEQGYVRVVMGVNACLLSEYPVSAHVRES

Usually pKi stands for −log10 of the Ki, conventionally taken in molar units. As to `CC(C)C[C@H](NC(=O)c1ccc(C(C)(C)C)cc1)C(=O)N1CC[C@@H]2[C@H]1C(=O)CN2C(=O)c1ccccc1` [Example 1, (3aR,6aS)-N-[(1S)-1-(4-Benzoyl-6-oxo-hexahydro-pyrrolo[3,2-b]pyrrole-1-carbonyl)-3-methyl-butyl]-4-tert-butylbenzamide], the pKi in test [1] and in test [2] was greater than 5.30 in each case.
On to `CC(C)C[C@H](NC(=O)c1ccc(C(C)(C)C)cc1)C(=O)N1CC[C@@H]2[C@H]1C(=O)CN2C(=O)Cc1ccccc1` [Example 3, (3aR,6aS)-4-tert-Butyl-N-[(1S)-3-methyl-1-(6-oxo-4-phenylacetyl-hexahydro-pyrrolo[3,2-b]pyrrole-1-carbonyl)-butyl]-benzamide], for which the pKi in test [1] was greater than 5.30.
As for `CC(C)C[C@H](NC(=O)c1ccc(C(C)(C)C)cc1)C(=O)N1CC[C@@H]2[C@H]1C(=O)CN2C(=O)c1cccnc1` [Example 5, (3aR,6aS)-4-tert-Butyl-N-{(1S)-3-methyl-1-[6-oxo-4-(pyridine-3-carbonyl)-hexahydro-pyrrolo[3,2-b]pyrrole-1-carbonyl]-butyl}-benzamide], the pKi in test [1] and in test [2] (setting [3]) was greater than 5.30 in each case.
As for `CC(C)C[C@H](NC(=O)c1ccc(C(C)(C)C)cc1)C(=O)N1CC[C@@H]2[C@H]1C(=O)CN2C(=O)c1ccncc1` [Example 6, (3aR,6aS)-4-tert-Butyl-N-{(1S)-3-methyl-1-[6-oxo-4-(pyridine-4-carbonyl)-hexahydro-pyrrolo[3,2-b]pyrrole-1-carbonyl]-butyl}-benzamide], the pKi in test [1] and in test [2] (setting [3]) was greater than 5.30 throughout.
In test [1], `CC(C)C[C@H](NC(=O)c1ccc(N(C)C)cc1)C(=O)N1CC[C@@H]2[C@H]1C(=O)CN2C(=O)c1ccc(C(C)(C)C)cc1` [Example 75, (3aR,6aS)-N-{(1S)-1-[4-(4-tert-Butyl-benzoyl)-6-oxo-hexahydro-pyrrolo[3,2-b]pyrrole-1-carbonyl]-3-methyl-butyl}-4-dimethylamino-benzamide] had a pKi greater than 5.30.
Same read-out and setting: the figure for `COC(=O)c1ccc(C(=O)N2CC(=O)[C@@H]3[C@H]2CCN3C(=O)[C@H](CC(C)C)NC(=O)c2ccc(N(C)C)cc2)cc1` [Example 76, (3aS,6aR)-4-{4-[(2S)-2-(4-Dimethylamino-benzoylamino)-4-methyl-pentanoyl]-3-oxo-hexahydro-pyrrolo[3,2-b]pyrrole-1-carbonyl}-benzoic acid methyl ester] is greater than 5.30; for `COc1cc(OC)cc(C(=O)N2CC(=O)[C@@H]3[C@H]2CCN3C(=O)[C@H](CC(C)C)NC(=O)c2ccc(N(C)C)cc2)c1` [Example 112, (3aR,6aS)-N-{(1S)-1-[4-(3,5-Dimethoxy-benzoyl)-6-oxo-hexahydropyrrolo[3,2-b]pyrrole-1-carbonyl]-3-methyl-butyl}-4-dimethylamino-benzamide] it is greater than 5.30; for `CC(C)C[C@H](NC(=O)c1ccc(C(C)(C)C)cc1)C(=O)N1CC[C@@H]2[C@H]1C(=O)CN2S(=O)(=O)c1ccccc1` [Example 119, (3aR,6aS)-N-[(1S)-1-(4-Benzenesulfonyl-6-oxo-hexahydro-pyrrolo[3,2-b]pyrrole-1-carbonyl)-3-methyl-butyl]-4-tert-butyl-benzamide] it is greater than 5.30.
As to `CC(C)C[C@H](NC(=O)c1ccc(-c2cccs2)cc1)C(=O)N1CC[C@@H]2[C@H]1C(=O)CN2S(=O)(=O)c1ccccc1` [Example 120, (3aR,6aS)-N-[(1S)-1-(4-Benzenesulfonyl-6-oxo-hexahydropyrrolo [3,2-b]pyrrole-1-carbonyl)-3-methyl-butyl]-4-thiophen-2-yl-benzamide], in test [1], the pKi is greater than 5.30.
On the same count and under the same terms, the figure for `CC(C)C[C@H](NC(=O)c1ccc(N(C)C)cc1)C(=O)N1CC[C@@H]2[C@H]1C(=O)CN2C(=O)[C@H](CC(N)=O)NC(=O)OCc1ccccc1` [Example 148, (3aS,6aR)-((1S)-1-Carbamoylmethyl-2-{4-[(2S)-2-(4-dimethylaminobenzoylamino)-4-methyl-pentanoyl]-3-oxo-hexahydro-pyrrolo[3,2-b]pyrrol-1-yl}-2-oxo-ethyl)-carbamic acid benzyl ester] is greater than 5.30; for `CC(C)C[C@H](NC(=O)c1cccc(CN)c1)C(=O)N1CC[C@@H]2[C@H]1C(=O)CN2C(=O)[C@H](C)c1ccccc1` [Example 176, (3aR,6aS)-3-Aminomethyl-N-{(1S)-3-methyl-1-[6-oxo-4-((2R)-2-phenyl-propionyl)-hexahydro-pyrrolo[3,2-b]pyrrole-1-carbonyl]-butyl}-benzamide] it is greater than 5.30; for `CC(C)C[C@H](NC(=O)c1cccc(CN)c1)C(=O)N1CC[C@@H]2[C@H]1C(=O)CN2C(=O)[C@@H](C)c1ccccc1` [Example 177, (3aR,6aS)-3-Aminomethyl-N-{(1S)-3-methyl-1-[6-oxo-4-((2S)-2-phenyl-propionyl)-hexahydro-pyrrolo[3,2-b]pyrrole-1-carbonyl]-butyl}-benzamide] it is greater than 5.30.
The same measure, in the same setting: the figure for `CC(=O)N(C)CC(=O)N1CC(=O)[C@@H]2[C@H]1CCN2C(=O)[C@H](CC(C)C)NC(=O)c1ccc(N(C)C)cc1` [Example 201, (3aR,6aS)-N-((1S)-1-{4-[2-(Acetyl-methyl-amino)-acetyl]-6-oxo-hexahydro-pyrrolo[3,2-b]pyrrole-1-carbonyl}-3-methyl-butyl)-4-dimethylamino-benzamide] is greater than 5.30.
The same measure, in the same setting: next, `CC(C)CC[C@H](N)C(=O)N1CC(=O)[C@@H]2[C@H]1CCN2C(=O)[C@H](CC(C)C)NC(=O)c1ccc(N(C)C)cc1` [Example 213, (3aR,6aS)-N-{(1S)-1-[4-((2S)-2-Amino-5-methyl-hexanoyl)-6-oxo-hexahydro-pyrrolo[3,2-b]pyrrole-1-carbonyl]-3-methyl-butyl}-4-dimethylamino-benzamide]: greater than 5.30; `CC(C)C[C@H](NC(=O)c1ccc(N(C)C)cc1)C(=O)N1CC[C@@H]2[C@H]1C(=O)CN2C(=O)[C@@H](N)CC1CCCCC1` [Example 215, (3aR,6aS)-N-{(1S)-1-[4-((2S)-2-Amino-3-cyclohexyl-propionyl)-6-oxo-hexahydro-pyrrolo[3,2-b]pyrrole-1-carbonyl]-3-methyl-butyl}-4-dimethylamino-benzamide]: greater than 5.30; `CCCC(C)C(=O)N1CC(=O)[C@@H]2[C@H]1CCN2C(=O)[C@H](CC(C)C)NC(=O)c1ccc(N(C)C)cc1` (stereo partly drawn) [Example 230, (3aR,6aS)-4-Dimethylamino-N-{(1S)-3-methyl-1-[4-(2-methyl-pentanoyl)-6-oxo-hexahydro-pyrrolo[3,2-b]pyrrole-1-carbonyl]-butyl}-benzamide]: greater than 5.30.
In test [1], `CCCCCC(=O)N1CC(=O)[C@@H]2[C@H]1CCN2C(=O)[C@H](CC(C)C)NC(=O)c1ccc(N(C)C)cc1` [Example 234, (3aR,6aS)-4-Dimethylamino-N-[(1S)-1-(4-hexanoyl-6-oxo-hexahydro-pyrrolo[3,2-b]pyrrole-1-carbonyl)-3-methyl-butyl]-benzamide] gave a negative logarithm of the Ki (pKi) greater than 5.30.
In the case of `Cc1ccc(C[C@H](NC(=O)c2ccc(C(C)(C)C)cc2)C(=O)N2CC[C@@H]3[C@H]2C(=O)CN3C(=O)Cc2ccccc2)cc1` [Example 360, (3aR,6aS)-4-tert-Butyl-N-[(1S)-1-(4-methyl-benzyl)-2-oxo-2-(6-oxo-4-phenylacetyl-hexahydro-pyrrolo[3,2-b]pyrrole-1-yl)-ethyl]-benzamide], the pKi in test [1] was greater than 5.30.
